Source: US12390437B2, “Itaconic acid derivatives and uses thereof intreating an inflammatory disease or a disease associated with an undesirable immune response” (Sitryx Therapeutics Limited, priority 2019, dated 2025)
Like-named read-outs stand apart in the source and are kept apart here.

Tests used:
[1] = test system: IL-1β cytokine output from THP-1s; experiment: THP-1 AlphaLISA IL-1β cytokine assay; format: cell-based, human; details: LPS 24 hr then Nigericin 1 hour, read-out: IL-1β (IC50)
Experimental: Measuring Inhibitory Effects on IL-1β and IL-6 Cytokine Output from THP-1s
The cytokine inhibition profiles of compounds of formula (IW-1) were determined in a differentiated THP-1 cell assay. All assays were performed in RPMI-1640 growth medium (Gibco), supplemented with 10% fetal bovine serum (FBS; Gibco), 1% penicillin-streptomycin and 1% sodium pyruvate unless specified otherwise. The IL-1β and IL-6 cytokine inhibition assays were each run in a background of differentiated THP-1 cells as described below. All reagents described were from Sigma-Aldrich unless specified otherwise. Compounds were prepared as 10 mM DMSO stocks.
THP-1 cells were expanded as a suspension up to 80% confluence in appropriate growth medium. Cells were harvested, suspended, and treated with an appropriate concentration of phorbol 12-myristate 13-acetate (PMA) over a 72 hr period (37° C./5% CO2).
Following 72 hrs of THP-1 cell incubation, cellular medium was removed and replaced with fresh growth media containing 1% of FBS. Working concentrations of compounds were prepared separately in 10% FBS treated growth medium and pre-incubated with the cells for 30 minutes (37° C./5% CO2). Following the 30 minute compound pre-incubation, THP-1s were treated with an appropriate concentration of LPS and the THP-1s were subsequently incubated for a 24 hr period (37° C./5% CO2). An appropriate final concentration of Nigericin was then dispensed into the THP-1 plates and incubated for 1 hour (37° C./5% CO2) before THP-1 supernatants were harvested and collected in separate polypropylene 96-well holding plates.
Reagents from each of the IL-1β and IL-6 commercial kits (Perkin Elmer) were prepared and run according to the manufacturer's instructions. Subsequently, fluorescence signal detection in a microplate reader was measured (EnVision® Multilabel Reader, Perkin Elmer).
Percentage inhibition was calculated per cytokine by normalising the sample data to the high and low controls used within each plate (+/−LPS respectively). Percentage inhibition was then plotted against compound concentration and the 50% inhibitory concentration (IC50) was determined from the resultant concentration-response curve.

[2] = Mouse pharmacokinetic study, intravenous dosing; format: in vivo; details: male, C57BL/6, mouse, iv, plasma, 10 mg/kg i.v., read-out: Parent compound concentration following intravenous administration
Experimental: Pharmacokinetic studies were carried out in 6-8-week-old male C57BL/6 mice having free access to food and water. Intravenous dosing was conducted at 10 mg/kg (5 mL/kg; vehicle: 10% DMSO-90% (25% HP-13-CD in water)) via tail vein injection, with sampling at 3 min, 8 min, 15 min, 30 min, 1, 2, 4, 6 and 8 hours, i.e., 9 time points in total (N=3/time point), using semi-serial bleeding for plasma. Oral compound administration, via gavage, was carried out at 100 mg/kg (10 mL/kg; vehicle: 5% DMSO-95% (0.5% HPMC+0.1% Tween 80 in water)), with sampling at 5 min, 15 min, 30 min, 1, 2, 4, 6, 8 and 24 hours, i.e., 9 time points in total (N=3/time point), using semi-serial bleeding for plasma.
For both intravenous and oral routes, the mice were restrained manually at the designated time points, with ca. 110 μL of blood being taken into K2EDTA tubes via the facial vein. Blood samples were put on ice and centrifuged to obtain plasma samples from which the concentration at each time point was measured by LC-MS/MS.

[3] = Homo sapiens, PMA-differentiated THP-1 cells
[4] = Homo sapiens, THP-1, PMA-differentiated THP-1 cells

Row | Structure (SMILES) | IC50 [1, 4] [µM] | further results
1 | C=C(CC(=O)OC12CC3CC(CC(C3)C1)C2)C(=O)OCC(=O)O [Example 172, 2-((4-((-adamantan-1-yl)oxy)-2-methylene-4-oxobutanoyl)oxy)acetic Acid] |  | IC50 [1, 3]: 23.8 µM; concentration at 0.05 h ([2]; time 0.05 h): 23700 ng/mL; concentration at 0.133 h ([2]; time 0.133 h): 11300 ng/mL; concentration at 0.25 h ([2]; time 0.25 h): 2640 ng/mL; concentration at 0.5 h ([2]; time 0.5 h): 1210 ng/mL; concentration at 1 h ([2]; time 1 h): 75 ng/mL; concentration at 2 h ([2]; time 2 h): 9.9 ng/mL; concentration at 4 h ([2]; time 4 h): 6.1 ng/mL; concentration at 6 h ([2]; time 6 h): < 4 ng/mL; concentration at 8 h ([2]; time 8 h): < 4 ng/mL
2 | C=C(CC(=O)OC(C)c1cc(Cl)cc(Cl)c1)C(=O)OCC(=O)O (centres unmarked) [Example 176, 2-((4-(1-(3,5-dichlorophenyl)ethoxy)-2-methylene-4-oxobutanoyl)oxy)acetic acid] | 12 | 
3 | C=C(CC(=O)OC(C)Cc1cc(Cl)cc(Cl)c1)C(=O)OCC(=O)O (centres unmarked) [Example 177, 2-((4-((1-(3,5-dichlorophenyl)propan-2-yl)oxy)-2-methylene-4-oxobutanoyl)oxy)acetic acid] | 20.5 | 
4 | C=C(CC(=O)OC(C1CCCCC1)C(F)(F)F)C(=O)OCC(=O)O (centres unmarked) [Example 180, 2-((4-(1-cyclohexyl-2,2,2-trifluoroethoxy)-2-methylene-4-oxobutanoyl)oxy)acetic acid] | 8.2 | 
5 | C=C(CC(=O)OC1C2CCCC1CCC2)C(=O)OCC(=O)O (centres unmarked) [Example 181, 2-((4-(bicyclo[3.3.1]nonan-9-yloxy)-2-methylene-4-oxobutanoyl)oxy)acetic acid] | 32.8 | 
6 | C=C(CC(=O)O[C@H](C)CCCCCCC)C(=O)OCC(=O)O [Example 183, (R)-2-((2-methylene-4-(nonan-2-yloxy)-4-oxobutanoyl)oxy)acetic acid] | 9.6 | 
7 | C=C(CC(=O)O[C@H](C)C1CCCCC1)C(=O)OCC(=O)O [Example 184, (R)-2-((4-(1-cyclohexylethoxy)-2-methylene-4-oxobutanoyl)oxy)acetic acid] | 33.9 | 
8 | C=C(CC(=O)O[C@H](C)CCCCCC)C(=O)O[C@H]1[C@@H]2CC[C@H]1CN(S(C)(=O)=O)C2 [Example 186, 1-((endo)-3-(methylsulfonyl)-3-azabicyclo[3.2.1]octan-8-yl) 4-((R)-octan-2-yl) 2-methylenesuccinate] | 3.5 | 
9 | C=C(CC(=O)O[C@H](C)CCCCCC)C(=O)OCc1cc(=O)[nH]o1 [Example 187, (R)-4-(octan-2-yl) 1-((3-oxo-2,3-dihydroisoxazol-5-yl)methyl) 2-methylenesuccinate] | 2.9 | 
10 | C=C(CC(=O)O[C@H](C)CCCCCC)C(=O)O[C@H](CC(=O)O)C(F)(F)F [Example 188, (R)-4,4,4-trifluoro-3-((2-methylene-4-(((R)-octan-2-yl)oxy)-4-oxobutanoyl)oxy)butanoic Acid] | 3.5 | 
11 | C=C(CC(=O)OC1(C2CCCCC2)CCC1)C(=O)OCC(=O)O [Example 191, 2-((4-(1-cyclohexylcyclobutoxy)-2-methylene-4-oxobutanoyl)oxy)acetic acid] | 26.6 | 
12 | C=C(CC(=O)OC1(CCCCC)CCC1)C(=O)OCC(=O)O [Example 194, 2-((2-methylene-4-oxo-4-(1-pentylcyclobutoxy)butanoyl)oxy)acetic acid] | 24.8 | 
13 | C=C(CC(=O)OC1(C)CC2(CCCCC2)C1)C(=O)OCC(=O)O [Example 195, 2-((2-methylene-4-((2-methylspiro[3.5]nonan-2-yl)oxy)-4-oxobutanoyl)oxy)acetic acid] | 24.3 | 
14 | C=C(CC(=O)OC1CC2CCC1(C)C2(C)C)C(=O)OCC(=O)O (stereo not drawn) [Example 196, 2-((2-methylene-4-oxo-4-(((exo)-1,7,7-trimethylbicyclo[2.2.1]heptan-2-yl)oxy)butanoyl)oxy)acetic acid] |  | IC50 ([1]; PMA-differentiated THP-1 cells): 18.8 µM
15 | C=C(CC(=O)OC1C(C)(C)CCCC1(C)C)C(=O)OCC(=O)O [Example 197] | 21.4 | 
16 | C=C(CC(=O)O[C@H](C)c1ccc(C(F)(F)F)cc1)C(=O)OCC(=O)O [Example 200, (R)-2-((2-methylene-4-oxo-4-(1-(4-(trifluoromethyl)phenyl)ethoxy)butanoyl)oxy) acetic acid] | 11.5 | 
17 | C=C(CC(=O)O[C@@H](C)c1ccc(C(F)(F)F)cc1)C(=O)OCC(=O)O [Example 201, (S)-2-((2-methylene-4-oxo-4-(1-(4-(trifluoromethyl)phenyl)ethoxy)butanoyl)oxy) acetic acid] | 24.6 | 
18 | C=C(CC(=O)OC1(C2CCCCC2)CC1)C(=O)OCC(=O)O [Example 202, 2-((4-(1-cyclohexylcyclopropoxy)-2-methylene-4-oxobutanoyl)oxy)acetic acid] |  | IC50 [1, 3]: 36.7 µM
19 | C=C(CC(=O)O[C@@H](C)C1CCCCC1)C(=O)OCC(=O)O [Example 203, (S)-2-((4-(1-cyclohexylethoxy)-2-methylene-4-oxobutanoyl)oxy)acetic acid] | 22 | 
20 | C=C(CC(=O)OC(C(C)(C)C)C(C)(C)C)C(=O)OCC(=O)O [Example 204, 2-((2-methylene-4-oxo-4-((2,2,4,4-tetramethylpentan-3-yl)oxy)butanoyl)oxy)acetic Acid] |  | IC50 [1, 3]: 41.7 µM
21 | C=C(CC(=O)O[C@H](C)CCCCCC)C(=O)O[C@@H](CC(=O)O)C(F)(F)F [Example 205, (S)-4,4,4-trifluoro-3-((2-methylene-4-(((R)-octan-2-yl)oxy)-4-oxobutanoyl)oxy)butanoic acid] | 1.7 | 
22 | C=C(CC(=O)OC1(CCCCC)CC1)C(=O)OCC(=O)O [Example 206, 2-((2-methylene-4-oxo-4-(1-pentylcyclopropoxy)butanoyl)oxy)acetic acid] | 19.1 | 
23 | C=C(CC(=O)OC1C(C)(C)CC1(C)C)C(=O)OCCC(=O)O [Example 207, 3-((2-methylene-4-oxo-4-(2,2,4,4-tetramethylcyclobutoxy)butanoyl)oxy) propanoic Acid] | 100 | 
